The values that follow come from patent US6004957A, “Sulfonamide inhibitors of aspartyl protease” (Vertex Pharmaceuticals, Incorporated, priority 1998, dated 1999).

Usually IC90 stands for the concentration at which the effect reaches the 90% level.

In this assay the test system is HIVIIIb in CCRM-CEM cells. Description: Anti-viral potency in CCRM-CEM cells acutely infected with HIVIIIb (method of Meek et al.), extracellular p24 antigen. The format is cell-based, HIV-1. The settings on record: Human immunodeficiency virus 1, HIV replication, Table VIII, read-out: IC90 Range. From the text: As discussed above, the novel compounds of the present invention are excellent ligands for aspartyl proteases, particularly HIV-1 and HIV-2 proteases. Accordingly, these compounds are capable of targeting and inhibiting late stage events in HIV replication, i.e., the processing of the viral polyproteins by HIV encoded proteases. […] Because aspartyl protease is essential for the production of mature virions, inhibition of that processing effectively blocks the spread of virus by inhibiting the production of infectious virions, particularly from chronically infected cells. […] Other anti-viral assays have confirmed the potency of these compounds.
Compounds of formula I were tested for their antiviral potency in several virological assays. In the first assay, the compounds were added as a solution in dimethylsulfoxide (DMSO) to a test cell culture of CCRM-CEM cells, a strain of CD4^+ human T-cell lymphoma cells, previously acutely infected with HIVIIIb using standard protocols (see Meek, T. D. et al., "Inhibition of HIV-1 protease in infected T-lymphocytes by synthetic peptide analogues", Nature, 343, p. 90 (1990). Preferred compounds are those which are able to inhibit 90% of viral infectivity at a concentration of 1 μM or less. More preferred compounds are those which are able to inhibit 90% of viral infectivity at a concentration of 100 nM or less.
The effect of the compounds on inhibiting the replication of the virus was measured by determining the HIV extracellular p24 antigen concentration using a commercial enzyme immunoassay (obtained from Coulter Corporation, Hialeah, Fla.).
Turning to `CC(C)CN(C[C@@H](O)[C@H](Cc1ccccc1)NC(=O)O[C@H]1CCOC1)S(=O)(=O)c1ccoc1` [Compound 113], the concentration for an effect of 90% (IC90) lay within 0.101 to 1 µM.
With `O=C(N[C@@H](Cc1ccccc1)[C@H](O)CN(CC1CCCC1)S(=O)(=O)c1ccc(F)cc1)OCc1cccnc1` [Compound 111] the figure was 1 to 10 µM; with `NC(=O)C[C@H](NC(=O)c1ccc2ccccc2n1)C(=O)N[C@@H](Cc1ccccc1)[C@H](O)CN(Cc1ccccc1)S(=O)(=O)c1cccc2nonc12` [Compound 9, (S)-N-1-(3-((Benzo(1,2,5)oxadiazole-4-sulfonyl)-benzyl-amino)-(1S,2 syn)-1-benzyl-2-hydroxy-propyl)-2-((quinoline-2-carbonyl)-amino)-succinamide], 0.101 to 1 µM.
Next, `CCOC(=O)N[C@@H](Cc1ccccc1)[C@H](O)CN(CC1CCCC1)S(=O)(=O)c1ccc(F)cc1` [Compound 115, N-Cyclopentylmethyl-N-((3-ethoxycarbonylamino)-(2 syn,3S)-2-hydroxy-4-phenyl-butyl)-4-fluoro-benzenesulfonamide]: 0.101 to 1 µM; `CC(=O)Nc1ccc(S(=O)(=O)N(CC(C)C)C[C@@H](O)[C@H](Cc2ccccc2)NC(=O)O[C@@H]2CCOC2)cc1` [Compound 94, N-(4-(((syn)-2-Hydroxy-(S)-4-phenyl-3-((tetrahydro-furan-(R)-3-yl)-oxycarbonylamino)-butyl)-isobutyl-sulfamoyl)-phenyl)-acetamide]: 0.101 to 1 µM.
With `O=C(N[C@@H](Cc1ccccc1)[C@H](O)CN(CC1CCCC1)S(=O)(=O)c1ccc(Cl)cc1)OCc1cccnc1` [Compound 118] the figure was 0.101 to 1 µM; with `Cc1ccc(S(=O)(=O)N(CC(C)C)C[C@@H](O)[C@H](Cc2ccccc2)NC(=O)O[C@H]2CCOC2)cc1` [Compound 165, N-((2 syn,3S)-2-Hydroxy-4-phenyl-3-((syn)-tetrahydrofuran-3-yloxycarbonylamino)-butyl)-N-isobutyl-4-methyl-benzenesulfonamide], 0.101 to 1 µM.
In the case of `CC(=O)Nc1ccc(S(=O)(=O)N(CC2CCCCC2)C[C@@H](O)[C@H](Cc2ccccc2)NC(=O)O[C@H]2CCOC2)cc1` [Compound 160, N-(4-(Cyclohexylmethyl)-((2 syn,3S)-2-hydroxy-4-phenyl-3-((S)-tetrahydrofuran-3-yloxycarbonylamino)-butyl)-sulfamoyl-phenyl)-acetamide], the IC90 was less than 0.1 µM.
Next, `CC[C@H](C)[C@H](NC(=O)OCc1ccccc1)C(=O)N[C@@H](Cc1ccccc1)[C@H](O)CN(CC(C)C)S(=O)(=O)c1ccc(F)c(NC(C)=O)c1` [Compound 187, Benzyloxycarbonyl-(L)-isoleucine-N-(5-((3-amino-(2 syn,3S)-2-hydroxy-4-phenyl-butyl)-isobutyl-sulfamoyl)-2-fluoro-phenyl)-acetamide]: 0.101 to 1 µM; `CC(=O)Nc1cc(S(=O)(=O)N(CC(C)C)C[C@@H](O)[C@H](Cc2ccccc2)NC(=O)O[C@H]2CCOC2)ccc1F` [Compound 88, N-(2-Fluoro-5-(((2 syn,3S)-2-hydroxy-4-phenyl-3-((S)-tetrahydrofuran-3-yloxycarbonylamino)-butyl)-isobutyl-sulfamoyl)-phenyl)-acetamide]: 0.101 to 1 µM; `C=CCOC(=O)N[C@@H](Cc1ccccc1)[C@H](O)CN(CC(C)C)S(=O)(=O)c1ccc(NC(C)=O)cc1` [Compound 27]: 1 to 10 µM.
With `C=CCOC(=O)N[C@@H](Cc1ccccc1)[C@H](O)CN(CC1CCCC1)S(=O)(=O)c1ccc(Cl)cc1` [Compound 117] the figure was 1 to 10 µM; with `CC(C)CN(C[C@@H](O)[C@H](Cc1ccccc1)NC(=O)[C@H](CC(N)=O)NC(=O)c1ccc2ccccc2n1)S(=O)(=O)c1ccc(F)cc1` [Compound 14, (S)-N-1-(1-(S)-Benzyl-3-((4-fluoro-benzenesulfonyl)-isobutyl-amino)-2-(syn)-hydroxy-propyl)-2-((quinoline-2-carbonyl)-amino)-succinamide], less than 0.1 µM; with `CC(C)(C)OC(=O)N[C@@H](Cc1ccccc1)[C@H](O)CN(CC1CCCC1)S(=O)(=O)c1ccc(Cl)c(Cl)c1` [Compound 84], 1 to 10 µM.
`C=C(COC)COC(=O)N[C@@H](Cc1ccccc1)[C@H](O)CN(CC1CCCC1)S(=O)(=O)c1ccc(OC)cc1` [Compound 162]: the concentration for an effect of 90% (IC90) was 1 to 10 µM.
Next, `CC(C)CN(C[C@@H](O)[C@H](Cc1ccccc1)NC(=O)O[C@H]1CCOC1)S(=O)(=O)c1cccc(Cl)c1` [Compound 138, 3-Chloro-N-((2 syn,3S)-2-hydroxy-4-phenyl-3-((S)-tetrahydrofuran-3-yloxycarbonylamino)-butyl)-N-isobutyl-benzenesulfonamide]: 0.101 to 1 µM; `O=C(N[C@@H](Cc1ccccc1)[C@H](O)CN(CC1CCCC1)S(=O)(=O)c1ccc(Cl)c(Cl)c1)O[C@H]1CCOC1` [Compound 183, 3,4-Dichloro-N-cyclopentylmethyl-N-((2 syn,3S)-2-hydroxy-4-phenyl-3-((S)-tetrahydrofuran-3-yloxycarbonylamino)-butyl)-benzenesulfonamide]: 0.101 to 1 µM.
Next, `COC(=O)N[C@@H](Cc1ccccc1)[C@H](O)CN(CC(C)C)S(=O)(=O)c1ccc(Cl)c(Cl)c1` [Compound 103]: 1 to 10 µM; `O=C(N[C@@H](Cc1ccccc1)[C@H](O)CN(CC1CCCC1)S(=O)(=O)c1ccc([N+](=O)[O-])cc1)O[C@H]1CCOC1` [Compound 170, N-Cyclopentylmethyl-N-((2 syn,3S)-2-hydroxy-4-phenyl-3-((S)-tetrahydrofuran-3-yloxycarbonylamino)-butyl)-4-nitro-benezensulfonamide]: 0.101 to 1 µM; `C=C(COC)COC(=O)N[C@@H](Cc1ccccc1)[C@H](O)CN(CC(C)C)S(=O)(=O)c1ccc(NC(C)=O)cc1` [Compound 155, N-4-((2-(syn)-Hydroxy-3-((2-methoxymethyl-allyloxycarbonylamino)-4-(S)-phenyl-butyl)-isobutyl-sulfamoyl)-phenyl)-acetamide]: 0.101 to 1 µM.
Next, `CC(C)CN(C[C@@H](O)[C@H](Cc1ccccc1)NC(=O)O[C@H]1CCOC1)S(=O)(=O)c1ccc(-c2ccccn2)s1` [Compound 51]: 1 to 10 µM; `Nc1ccc(S(=O)(=O)N(CC2CCCC2)C[C@@H](O)[C@H](Cc2ccccc2)NC(=O)O[C@H]2CCOC2)c(N)c1` [Compound 173, 2,4-Diamino-N-cyclopentylmethyl-N-((2 syn,3S)-2-hydroxy-4-phenyl-3-((S)-tetrahydrofuran-3-yloxycarbonylamino)-butyl)-benzenesulfonamide]: less than 0.1 µM.
For the compound `Cc1noc(C)c1S(=O)(=O)N(Cc1ccccc1)C[C@@H](O)[C@H](Cc1ccccc1)NC(=O)[C@H](CC(N)=O)NC(=O)c1ccc2ccccc2n1` [Compound 3], the IC90 is 1 to 10 µM.
Next, `CC(=O)Nc1ccc(S(=O)(=O)N(CC(C)C)C[C@@H](O)[C@H](Cc2ccccc2)NC(=O)OC(C)(C)C)cc1` [Compound 39]: 1 to 10 µM; `CC(=O)Nc1cc(S(=O)(=O)N(CC(C)C)C[C@@H](O)[C@H](Cc2ccccc2)NC(=O)[C@H](CC(N)=O)NC(=O)c2ccc3ccccc3n2)ccc1F` [Compound 16, (S)-N-1-(3-((3-Acetylamino-4-fluoro-benzenesulfonyl)-isobutyl-amino)-(1S,2 syn)-1-benzyl-2-hydroxy-propyl)-2-((quinoline-2-carbonyl)-amino)-succinamide]: 0.101 to 1 µM.
